Key:
Assay type in all cases: cell-based
GmCSyGT3 = target: T1, GmCSyGT3 (Glycine max, UniProt A0A7I6P8J7); test: yeast feeding assay, LC-MS of monoglucuronide; conditions: 10 µM substrate fed to yeast with co-expressed UGD
T1 construct: full-length cDNA, membrane protein, expressed in S. cerevisiae with A. thaliana UGD
T1 sequence (A0A7I6P8J7 1-696): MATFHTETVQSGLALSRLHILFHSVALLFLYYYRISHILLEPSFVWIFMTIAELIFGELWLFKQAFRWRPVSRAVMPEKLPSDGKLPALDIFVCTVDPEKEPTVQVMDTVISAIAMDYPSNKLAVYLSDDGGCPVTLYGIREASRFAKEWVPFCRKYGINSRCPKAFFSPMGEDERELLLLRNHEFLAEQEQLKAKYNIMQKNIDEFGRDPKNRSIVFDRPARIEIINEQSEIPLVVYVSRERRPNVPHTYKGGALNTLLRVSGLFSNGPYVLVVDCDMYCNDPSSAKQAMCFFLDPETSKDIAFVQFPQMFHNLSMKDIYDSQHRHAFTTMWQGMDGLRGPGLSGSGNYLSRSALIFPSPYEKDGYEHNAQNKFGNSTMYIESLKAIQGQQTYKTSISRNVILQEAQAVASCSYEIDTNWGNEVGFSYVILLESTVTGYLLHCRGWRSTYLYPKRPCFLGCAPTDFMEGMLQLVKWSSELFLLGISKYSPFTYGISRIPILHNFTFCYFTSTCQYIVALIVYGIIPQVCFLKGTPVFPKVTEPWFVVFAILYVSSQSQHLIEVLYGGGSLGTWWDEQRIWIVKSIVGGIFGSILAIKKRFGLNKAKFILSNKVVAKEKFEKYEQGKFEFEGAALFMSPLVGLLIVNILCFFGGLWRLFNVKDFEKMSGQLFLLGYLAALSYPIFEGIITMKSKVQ

GmCSyGT1 = target: T2, GmCSyGT1 (Glycine max, UniProt A0A7I6PD81); test: in vivo yeast assay, LC-MS of monoglucuronide; conditions: yeast strain with co-expressed UGD; endogenous UDP-glucuronic acid; 30 °C, 5 days
T2 construct: full-length cDNA, membrane protein, expressed in S. cerevisiae with A. thaliana UGD
T2 sequence (A0A7I6PD81 1-699): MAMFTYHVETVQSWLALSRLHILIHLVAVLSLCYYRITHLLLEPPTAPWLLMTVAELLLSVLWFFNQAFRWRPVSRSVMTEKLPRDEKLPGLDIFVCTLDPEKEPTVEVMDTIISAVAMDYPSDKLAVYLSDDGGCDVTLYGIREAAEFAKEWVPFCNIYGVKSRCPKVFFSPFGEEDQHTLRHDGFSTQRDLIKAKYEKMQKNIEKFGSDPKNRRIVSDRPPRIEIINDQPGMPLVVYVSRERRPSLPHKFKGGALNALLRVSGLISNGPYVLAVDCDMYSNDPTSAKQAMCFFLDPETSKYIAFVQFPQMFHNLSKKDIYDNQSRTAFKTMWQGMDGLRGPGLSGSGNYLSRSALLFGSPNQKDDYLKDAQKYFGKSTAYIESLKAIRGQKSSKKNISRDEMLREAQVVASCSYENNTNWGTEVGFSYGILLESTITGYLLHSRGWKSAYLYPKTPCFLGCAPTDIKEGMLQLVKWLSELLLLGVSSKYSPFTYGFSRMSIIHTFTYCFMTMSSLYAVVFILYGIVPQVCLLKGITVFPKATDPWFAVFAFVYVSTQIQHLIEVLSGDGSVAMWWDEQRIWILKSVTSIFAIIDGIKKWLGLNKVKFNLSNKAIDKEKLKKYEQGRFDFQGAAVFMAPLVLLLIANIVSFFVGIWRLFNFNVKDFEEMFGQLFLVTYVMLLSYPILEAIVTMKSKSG

LjCSyGT = target: T3, LjCSyGT (Lotus japonicus, UniProt A0A7I6P8A1); test: in vivo yeast assay, LC-MS of monoglucuronide; conditions: yeast strain with co-expressed UGD; endogenous UDP-glucuronic acid; 30 °C, 5 days
T3 construct: cDNA clone, ER membrane protein, expressed in S. cerevisiae with A. thaliana UGD
T3 sequence (A0A7I6P8A1 1-694): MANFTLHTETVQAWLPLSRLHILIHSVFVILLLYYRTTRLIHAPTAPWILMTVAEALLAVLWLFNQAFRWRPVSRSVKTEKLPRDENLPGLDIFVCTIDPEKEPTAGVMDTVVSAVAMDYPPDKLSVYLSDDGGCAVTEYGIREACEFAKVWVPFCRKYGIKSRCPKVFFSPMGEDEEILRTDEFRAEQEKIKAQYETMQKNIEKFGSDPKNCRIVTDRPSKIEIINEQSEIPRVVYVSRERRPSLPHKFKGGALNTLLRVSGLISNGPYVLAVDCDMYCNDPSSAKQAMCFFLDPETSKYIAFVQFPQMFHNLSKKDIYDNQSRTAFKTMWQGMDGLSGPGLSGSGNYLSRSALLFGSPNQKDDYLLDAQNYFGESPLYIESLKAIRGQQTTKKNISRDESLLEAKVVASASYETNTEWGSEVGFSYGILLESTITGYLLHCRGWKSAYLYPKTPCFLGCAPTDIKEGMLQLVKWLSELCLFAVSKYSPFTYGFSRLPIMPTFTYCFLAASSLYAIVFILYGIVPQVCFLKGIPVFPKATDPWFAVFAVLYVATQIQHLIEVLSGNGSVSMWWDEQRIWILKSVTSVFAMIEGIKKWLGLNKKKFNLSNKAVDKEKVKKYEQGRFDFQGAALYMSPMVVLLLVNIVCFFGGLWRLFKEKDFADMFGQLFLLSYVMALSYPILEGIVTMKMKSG

GuUGT73F13 = target: T4, GuUGT73F13 (Glycyrrhiza uralensis, UniProt A0A6S4QPQ3); test: in vivo yeast assay, LC-MS of 3-O-monoglucoside; conditions: glycyrrhetinic acid-producing yeast strain with UGD; donor endogenous UDP-glucose
T4 construct: gene UGT73F13; cDNA clone expressed in S. cerevisiae with A. thaliana UGD
T4 sequence (A0A6S4QPQ3 1-477): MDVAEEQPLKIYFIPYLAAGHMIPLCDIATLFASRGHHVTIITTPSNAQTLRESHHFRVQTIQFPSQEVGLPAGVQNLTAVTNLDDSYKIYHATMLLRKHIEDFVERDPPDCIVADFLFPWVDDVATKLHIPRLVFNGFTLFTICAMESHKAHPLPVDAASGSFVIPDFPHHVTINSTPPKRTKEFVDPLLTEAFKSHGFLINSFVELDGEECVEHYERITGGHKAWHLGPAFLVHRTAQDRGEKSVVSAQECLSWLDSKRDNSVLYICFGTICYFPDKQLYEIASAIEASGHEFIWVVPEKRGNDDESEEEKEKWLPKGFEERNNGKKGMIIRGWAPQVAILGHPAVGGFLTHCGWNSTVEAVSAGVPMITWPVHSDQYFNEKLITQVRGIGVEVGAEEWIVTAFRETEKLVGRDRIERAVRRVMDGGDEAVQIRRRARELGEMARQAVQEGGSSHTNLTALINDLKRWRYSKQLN

GuCSyGT [1] = target: T5, GuCSyGT (Glycyrrhiza uralensis, UniProt A0A7I6P8N6); test: in vivo yeast assay, LC-MS of monoglucuronide; conditions: yeast strain with co-expressed UGD; endogenous UDP-glucuronic acid; 30 °C, 5 days
T5 construct: full-length cDNA, ER membrane protein, expressed in S. cerevisiae with A. thaliana UGD
T5 sequence (A0A7I6P8N6 1-695): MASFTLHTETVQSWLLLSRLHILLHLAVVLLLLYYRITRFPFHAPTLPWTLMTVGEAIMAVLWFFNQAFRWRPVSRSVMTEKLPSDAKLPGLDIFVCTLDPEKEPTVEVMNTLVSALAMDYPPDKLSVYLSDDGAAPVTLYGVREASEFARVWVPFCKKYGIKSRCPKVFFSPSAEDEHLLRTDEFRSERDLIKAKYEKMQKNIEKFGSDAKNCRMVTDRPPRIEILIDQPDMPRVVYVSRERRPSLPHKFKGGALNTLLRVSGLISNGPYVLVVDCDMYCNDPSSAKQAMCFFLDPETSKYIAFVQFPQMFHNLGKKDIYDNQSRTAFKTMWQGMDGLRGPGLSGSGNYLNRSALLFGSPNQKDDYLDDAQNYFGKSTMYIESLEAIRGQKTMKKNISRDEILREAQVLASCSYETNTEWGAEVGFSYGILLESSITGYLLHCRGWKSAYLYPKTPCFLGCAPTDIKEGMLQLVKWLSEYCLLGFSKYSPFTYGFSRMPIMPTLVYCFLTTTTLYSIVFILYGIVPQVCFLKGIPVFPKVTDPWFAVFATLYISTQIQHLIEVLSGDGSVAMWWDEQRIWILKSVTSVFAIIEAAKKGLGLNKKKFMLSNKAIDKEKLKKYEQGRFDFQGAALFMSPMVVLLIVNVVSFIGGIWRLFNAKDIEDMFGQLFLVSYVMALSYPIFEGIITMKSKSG

GuCSyGT [2] = target: T5, GuCSyGT; test: in vivo yeast assay, LC-MS of products with and without UGD; conditions: sugar donor; acceptor glycyrrhetinic acid
UGT73P12 = target: T6, UGT73P12 (Glycyrrhiza uralensis, UniProt A0A5A4WN00); test: de novo pathway in yeast, LC-MS of glycyrrhizin; conditions: donor endogenous UDP-glucuronic acid (UGD); acceptor made in situ by CSyGT
T6 construct: expressed in S. cerevisiae in the reconstructed glycyrrhizin pathway (strain GL)
T6 sequence (A0A5A4WN00 1-506): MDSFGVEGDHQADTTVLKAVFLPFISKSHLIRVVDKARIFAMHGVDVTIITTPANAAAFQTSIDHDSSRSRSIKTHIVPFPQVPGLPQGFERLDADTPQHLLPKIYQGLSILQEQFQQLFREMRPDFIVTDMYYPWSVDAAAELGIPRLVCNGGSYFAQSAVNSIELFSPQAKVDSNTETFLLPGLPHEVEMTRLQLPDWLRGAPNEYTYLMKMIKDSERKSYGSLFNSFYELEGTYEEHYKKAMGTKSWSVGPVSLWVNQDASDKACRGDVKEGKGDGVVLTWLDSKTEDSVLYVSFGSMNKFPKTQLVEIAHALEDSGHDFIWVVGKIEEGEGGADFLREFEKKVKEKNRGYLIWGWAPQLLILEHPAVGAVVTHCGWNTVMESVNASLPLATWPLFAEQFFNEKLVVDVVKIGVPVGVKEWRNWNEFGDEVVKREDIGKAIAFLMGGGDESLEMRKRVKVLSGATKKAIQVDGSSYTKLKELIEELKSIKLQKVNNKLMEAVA

C=C(C)[C@@H]1CC[C@]2(C(=O)O)CC[C@]3(C)[C@H](CC[C@@H]4[C@@]5(C)CC[C@H](O)C(C)(C)[C@@H]5CC[C@]43C)[C@@H]12 [betulinic acid]
yeast feeding assay, LC-MS of monoglucuronide (GmCSyGT3): GmCSyGT3 showed catalytic activity against the triterpenoid aglycones, ursolic acid and betulinic acid

CC1(C)C[C@@H](O)[C@]2(C)CC[C@]3(C)C(=CC[C@@H]4[C@@]5(C)CC[C@H](O)[C@](C)(CO)[C@@H]5CC[C@]43C)[C@@H]2C1 [soyasapogenol B]
in vivo yeast assay, LC-MS of monoglucuronide (GmCSyGT1): all three had similar levels of catalytic activity for soyasapogenol B | in vivo yeast assay, LC-MS of monoglucuronide (LjCSyGT): all three had similar levels of catalytic activity for soyasapogenol B

CC1(C)[C@@H](O)CC[C@]2(C)[C@H]3C(=O)C=C4[C@@H]5C[C@@](C)(C(=O)O)CC[C@]5(C)CC[C@@]4(C)[C@]3(C)CC[C@@H]12 [GA, glycyrrhetinic acid]
in vivo yeast assay, LC-MS of 3-O-monoglucoside (GuUGT73F13): GuUGT73F13, which catalyses 3-O-glucosylation of glycyrrhetinic acid | in vivo yeast assay, LC-MS of monoglucuronide (GuCSyGT [1]): All of the CSyGT-expressing strains produced the corresponding monoglucuronides | in vivo yeast assay, LC-MS of monoglucuronide (GmCSyGT1): All of the CSyGT-expressing strains produced the corresponding monoglucuronides | in vivo yeast assay, LC-MS of monoglucuronide (LjCSyGT): The low catalytic activity of LjCSyGT for glycyrrhetinic and oleanolic acids

O=C(O)[C@H]1O[C@H](OP(=O)(O)OP(=O)(O)OC[C@H]2O[C@@H](n3ccc(=O)[nH]c3=O)[C@H](O)[C@@H]2O)[C@H](O)[C@@H](O)[C@@H]1O [UDP-glucuronic acid]
in vivo yeast assay, LC-MS of products with and without UGD (GuCSyGT [2]): GuCSyGT preferentially selects UDP-glucuronic acid as the sugar donor

C[C@H]1[C@H](C)CC[C@]2(C(=O)O)CC[C@]3(C)C(=CC[C@@H]4[C@@]5(C)CC[C@H](O)C(C)(C)[C@@H]5CC[C@]43C)[C@H]12 [ursolic acid]
yeast feeding assay, LC-MS of monoglucuronide (GmCSyGT3): GmCSyGT3 showed catalytic activity against the triterpenoid aglycones, ursolic acid and betulinic acid

CC1(C)[C@@H](O[C@@H]2O[C@H](C(=O)O)[C@@H](O)[C@H](O)[C@H]2O)CC[C@]2(C)[C@H]3C(=O)C=C4[C@@H]5C[C@@](C)(C(=O)O)CC[C@]5(C)CC[C@@]4(C)[C@]3(C)CC[C@@H]12 [GA–GlcA, glycyrrhetinic acid-3-O-monoglucuronide]
de novo pathway in yeast, LC-MS of glycyrrhizin (UGT73P12): Since the product is quickly converted into glycyrrhizin in GL strains
